Reference: article PMC9387934, “Randomized single oral dose phase 1 study of safety, tolerability, and pharmacokinetics of Iminosugar UV-4 Hydrochloride (UV-4B) in healthy subjects” (PLoS Neglected Tropical Diseases, 2022)
Counter-ions that a name gives are not always drawn. Like-named read-outs stand apart in the source and are kept apart here.

Key:
[1] = design: method as in Investigator’s Brochure (IB); conditions: single oral dose, ferrets; ref Investigator’s Brochure (IB); cited from earlier work
CYP2D6 = tested on: CYP2D6; design: method as in Investigator’s Brochure (IB); conditions: in vitro; ref Investigator’s Brochure (IB); cited from earlier work
CYP2C8 = tested on: CYP2C8; design: method as in Investigator’s Brochure (IB); conditions: in vitro; ref Investigator’s Brochure (IB); cited from earlier work
[2] = Prediction of human clearance and exposure by scaling of IV PK data from mouse, rat and dog against body weight
Method: Pharmacokinetic parameters seen in the Phase 1a study were compared to exposure and clearance data collected in animal studies to determine if consistent parameters are observed across species (detailed ADME and PK assessment in non-human species will be described in a manuscript in preparation). Nonclinical PK and excretion studies of UV-4 as the hydrochloride salt and UV-4 free base were conducted using the oral and IV routes of administration as single doses in mice, rats, ferrets, and dogs. […] Absorption was rapid following oral administration in each nonclinical species, in alignment with the median Tmax of 0.5 to 1 hour across all dose groups in the Phase 1a study.

[3] = tested on: human ether-a-go-go-related gene potassium channel; conditions: at UV-4 concentration more than 20-fold higher than expected at the planned ceiling dose in humans; ref Investigator’s Brochure (IB); cited from earlier work
[4] = design: method as in Investigator’s Brochure (IB); conditions: beagle dogs, single dose of 400 mg/kg; ref Investigator’s Brochure (IB); cited from earlier work
DENV = conditions: cited from earlier work
[5] = cited from earlier work
[6] = cited from earlier work; remark: listed apart in the source
[7] = Reproductive toxicity upper limit study in rats, 12 days; type: in vivo, rat; conditions: 50 mg/kg/day
Method: 7. Reproductive toxicity:
UV-4B has been evaluated for developmental and reproductive toxicity in fertility and early embryonic development in rats, embryo-fetal development in rats and rabbits, and pre- and postnatal development in rats. In male and female rats given UV-4B at 8, 20, and 50 mg/kg/day before mating and continuing through Gestation Day 13, a […]
observed at 50 mg/kg/day. […]
count but following a 21-week treatment-free period there was complete recovery in pregnancy and fertility indices However, decrease in testicular weight, sperm motility […]
identify the upper limit of reproductive toxicity, a dose of 50 mg/kg/day for 12 […]
In a study designed to identify the upper limit of reproductive toxicity, a dose of 50 […]
rabbit offspring. The rat and rabbit doses are equivalent to 486 and 966 mg/day, […]
In summary, findings that have been identified in the UV-4B toxicology studies so far include effects on the GI tract (including ulcers/erosions), lymphocytes and lymphoid tissue, reduction in PLT count, and increases in transaminases (AST>ALT). Findings were generally consistent across mouse, dog, and rat, apart from the isolated finding of swollen paws/legs and perioral appearance and red skin which was seen only in the rat. […]

[8] = 20 mg/kg TID, started 1 hour before infection, ref UV4-LIA-0004
[9] = 20 mg/kg TID, started 24 hours after infection, ref UV4-LIA-0003b
[10] = 20 mg/kg TID, started 24 hours after infection, ref UV4-LIA-0004
[11] = 20 mg/kg TID, started 48 hours after infection, ref UV4-LIA-0003b
[12] = 20 mg/kg TID, started 48 hours after infection, ref UV4-LIA-0004
[13] = dog, 2 TID mg/kg, Day 28 (Recovery)
[14] = dog, 10 TID mg/kg (NOAEL), Day 28 (Recovery)
[15] = dogs, 10 mg/kg/dose TID, ref Investigator’s Brochure (IB)

COCCCCCCCCCN1C[C@H](O)[C@@H](O)[C@H](O)[C@H]1CO [UV-4, N-(9’-methoxynonyl)-1-deoxynojirimycin]
t1/2 [1]: 2 h
Direct inhibition of CYP2D6 (CYP2D6): No clinically relevant direct inhibition
Direct inhibition of CYP2C8 (CYP2C8): No clinically relevant direct inhibition
clearance ([2]; human, simple scaling of systemic clearance against body weight, IV PK data of mouse, rat and dog, read-out: Human systemic clearance, estimated (converted)): 560 mL/min
Total exposure (AUC(0-inf)), predicted ([2]; starting dose of 3 mg, from scaled clearance): 89 ng·h/mL

COCCCCCCCCCN1C[C@H](O)[C@@H](O)[C@H](O)[C@H]1CO [UV-4B, N-(9’-methoxynonyl)-1-deoxynojirimycin hydrochloride]
Inhibition of hERG potassium channel [3]: did not inhibit
Neurologic finding [4]: tremors
Survival rate (DENV; 2.5 mg/kg TID, ref UV4-LIA-0002): 40%
Survival rate (DENV; 5 mg/kg TID, ref UV4-LIA-0002): 50%
Mean time to death (MTTD) (DENV; 20 mg/kg TID, started 1 hour before infection, all surviving at end of study, ref UV4-LIA-0003b): more than 11 days
Survival rate (DENV; 20 mg/kg TID, started 1 hour before infection, ref UV4-LIA-0003b): 100%
Mean time to death (MTTD) (DENV; [8]): 9.1 days
Survival rate at 11 days post-infection (DENV; [8]): 30%
Mean time to death (MTTD) (DENV; [9]): 7 days
Survival rate (DENV; [9]): 80%
Mean time to death (MTTD) (DENV; [10]): 10.5 days
Survival rate at 11 days post-infection (DENV; [10]): 60%
Mean time to death (MTTD) (DENV; [11]): 9.3 days
Survival rate (DENV; [11]): 70%
Mean time to death (MTTD) (DENV; [12]): 6 days
Survival rate at 11 days post-infection (DENV; [12]): 40%
Minimal effective dose (survival of 90% to 100%) (DENV; doses 2.5 to 40 mg/kg TID, first dose 1 hour prior to infection, ref UV4-LIA-0002): 10 mg/kg TID
No clinically relevant effects ([5]; dog CV single dose, 10 mg/kg): −
Cardiovascular assessment ([5]; dogs, 10 mg/kg, ref Investigator’s Brochure (IB)): no clinically relevant effects
Cardiovascular assessment, only change outside the normal range ([5]; dogs, 50 or 200 mg/kg, ref Investigator’s Brochure (IB)): decreased arterial pulse pressure
AST [6, 13]: −
Decreased thymus weight [6, 13]: −
Lymphocyte depletion [6, 13]: −
PLT [6, 13]: −
Decreased thymus weight ([6]; dog, 10 TID mg/kg (NOAEL), Day 28 (Recovery), females): −(F)
Decreased thymus weight ([6]; dog, 10 TID mg/kg (NOAEL), Day 28 (Recovery), males): ↓(M)
ALT [6, 14]: −
AST [6, 14]: −
Inverted AST/ALT ratio [6, 14]: −
Lymphoid depletion in thymus, spleen, lymph nodes and GALT [6, 14]: −
Nonformed feces [6, 14]: −
PLT [6, 14]: −
Reticulocyte count [6, 14]: −
aPTT [6, 14]: −
Increase in ALT [6, 15]: up to 2.9 x BL
Increase in AST [6, 15]: up to 9.7 x BL
Increase in aPTT [6, 15]: 2.2 x BL
NOAEL ([6]; dogs, 14 days of TID administration, ref Investigator’s Brochure (IB)): 30 mg/kg/day
No observed effect level (NOEL) ([6]; dogs, 14 days, lowest dose exceeded the NOEL, ref Investigator’s Brochure (IB)): < 2 mg/kg/dose TID
NOAEL ([6]; dogs, 14 days, ref Investigator’s Brochure (IB)): 10 mg/kg/dose TID
Average (male and female) AUC(0-8) ([6]; dogs, end of dosing phase, at NOAEL 30 mg/kg/day, ref Investigator’s Brochure (IB)): 10,940 ng•h/mL
Human equivalent of the rat dose [7]: 486 mg/day
